From patent US5696113A, “Antipsychotic agents, compositions and method of use” (Hoechst Marion Roussel, Inc., priority 1996, dated 1997)
Structures can show the parent of a compound that is named as a salt. Where two headings read alike, the source gives them in different places.

Key:
[1] = tested on: apomorphine climbing; assay: Climbing Mouse Assay (apomorphine-induced climbing); format: in vivo, mice (CK-1 male); details: ip, read-out: CLIMBING MOUSE ASSAY (ED50 mg/kg, ip)
Experimental: Antipsychotic activity is determined in the climbing mice assay by a method similar to those described by P. Protais, et al, Psychopharmacol.
Subject […] male mice (23-27 grams) are group-housed under standard laboratory conditions. The mice are individually placed in wire mesh stick cages (4"×10") and are allowed one hour for adaption and exploration of the new environment.
For evaluation of climbing, 3 readings are taken at 10, 20, and 30 minutes after apomorphine administration according to the following scale:
Mice consistently climbing before the injection of apomorphine are discarded.
With full-developed apomorphine climbing, the animals are hanging on to the cage walls, rather motionless, over long periods of time. By contrast, climbs due to mere motor stimulation usually only last a few seconds.
The climbing scores are individually totaled (maximal score: 6 per mouse over 3 readings) and the total score of the control group (vehicle intraperitoneally, apomorphine subcutaneously) is set to 100%.

[2] = tested on: postsynaptic dopamine receptors; assay: Apomorphine stereotypy inhibition in rats (APO-S); format: in vivo, male Wistar rats; details: ip, apomorphine 1.5 mg/kg s.c.
Experimental: APOMORPHINE STEREOTYPY INHIBITION IN RATS
For a primary screen, a group size of six is used. Drug is administered one hour prior to scoring and the animals are placed in individual clear plastic cages (24×14×13 cm). The control group receives vehicle. Apomorphine is prepared at a concentration of 15 mg/10 ml in a […] ascorbic acid stock solution prepared with 30 mg of ascorbic acid in 100 ml of 1% saline to increase the stability of the apomorphine while in solution. […] Stereotypic behavior is noted 10 minutes later. […] Stereotypic behavior is defined as sniffing, licking or chewing behavior which occurs in a repetitive manner and is continuous for a 10-second period in the presence of white noise. The animal is considered protected if this behavior is interrupted. The percent effectiveness of a drug is determined by the number of animals protected in each group.
A dose-response is determined in the same manner as a primary screen except that a group size of 10 is used and the animals are dosed in a randomized manner. One group receives vehicle. ED50 values for inhibition of stereotypy are calculated by means of Litchfield and Wilcoxon Analysis.

[3] = tested on: dopamine neurons, ventral tegmental area (A10); assay: Chronic single-unit dopamine neuron sampling, A10 region; format: in vivo, male Wistar rats; details: ip, once a day for 21 days, vs vehicle; dose 20 mg/kg for the hydrobromide compound
Experimental: Dopamine Neuron Sampling.
Compounds were prepared as percent base.

[4] = target: T1, D2-Dopaminergic Site (striatal membranes) (Rattus norvegicus, UniProt P61169); assay: 3H-Spiroperidol binding to striatal membranes (D2-dopaminergic site); design: species or system rats
T1 construct: from tissue; host or cells: rat striatum (membranes)
Experimental: (§1) D2 /5T-HT2 BINDING ASSAYS
^3 H-Spiroperidol Binding to Striatal Membranes (D2 -Dopaminergic Site) in Rats
Striatal membranes were incubated with ^3 H-spiroperidol (0.4 nM) and various concentrations of test drug at 37° C. for 10 minutes in 1 ml of 0.05 M Tris-HCl buffer, pH 7.7 containing 120 mM NaCl, 5 mM KCl, 2 mM CaCl2, and 1 mM MgCl2. Nonspecific binding was determined in the presence of 2μM(+)-butaclamol. Bound ligand was separated by rapid filtration through Whatman GF/B filters.

[5] = tested on: dopamine neurons, substantia nigra (A9); assay: Chronic single-unit dopamine neuron sampling, A9 region; details: for % Change in A9 region (dopamine neuron sampling): ip, once a day for 21 days, vs vehicle, dose 20 mg/kg for the hydrobromide compound
Experimental: Dopamine Neuron Sampling. Male Wistar rats (280-360 grams) were used in this procedure. They were housed for at least 48 hours in a climate-controlled vivarium with food and water continuously available. Each rat was initially anesthetized with chloral hydrate (400 mg/kg ip) and maintained with additional injections as needed throughout the experiment. The animal was mounted in a stereotaxic apparatus (Kopf, model 900). The cranium was exposed, cleaned of connective tissue and dried. The skull overlying both the substantia nigra [A9:anterior (A) 3000-3400 microns, lateral (L) 1800-2400 microns from lambda)] and the ventral tegmental area (A10: A3000-3400 microns, L 400-1000 microns from lambda)^47 was removed. Using the dura as a point of reference, a micropipette driven by a hydraulic microdrive was lowered through the opening in the skull at vertical 6000-8500 microns. Spontaneously firing dopamine neurons within both the substantia nigra and the ventral tegmental areas were counted by lowering the electrode into twelve separate tracks (each track separated from the other by 200 microns) in each region. The sequence of the tracks was kept constant, forming a block of tissue which could be repoducibly located from animal to animal.
Extracellular neuronal signals were sampled using a single barrel micropipette approximately one micron at its tip, and filled with 2M NaCl saturated with 1% pontamine sky blue dye. The in vitro impedance of this piper (measured with a Winston Electronics Co., BL-1000 Micro Electrode Tester) was between 5 and 10 megaohms. […] Only cells whose electrophysiological characteristics matched those previously established for midbrain dopamine neurons were counted.
At the end of each experiment, the location of the last recorded track tip was marked by passing 25 microampere cathodal current through the recording micropipette barrel for 15 minutes in order to deposit a spot of dye. The rat was sacrificed; the brain was then removed, dissected and frozen on a bed of dry ice. Frozen serial sections (20 microns in width) were cut, mounted, and stained with cresyl violet and examined using a light microscope.
Animals pretreated with vehicle prior to neuronal sampling served as controls. Compounds were prepared as percent base. Each compound was suspended in distilled water and one drop of Tween 80, and kept constantly agitated during dosing. All compounds were delivered at a dodge volume of 1 mg/kg by the intraperitoneal route. For animals used in the chronic single-unit, dopamine neuron sampling assay, the compounds were administered once a day for 21 days, and dopamine neuron sampling was begun two hours after the last dose on the 21st day. […]

[6] = target: T2, 5HT2 Site (cerebral cortical membranes) (Rattus norvegicus, UniProt P14842); assay: 3H-Spiroperidol binding to cerebral cortical membranes (5HT2 site); design: species or system rats; details: 3H-spiroperidol 1.5 nM, 37° C., 10 min, pH 7.7
T2 construct: from tissue; host or cells: rat cerebral cortex (membranes)
Experimental: as §1
^3 H-Spiroperidol Binding to Cerebral Cortical membranes (5HT2 Site) in Rats
Nonspecific binding was determined in the presence of 5 μM methysergide. The incubation was terminated by rapid filtration through Whatman GF/B filters.

[7] = tested on: dopamine neurons, substantia nigra (A9); details: repeated administration; background statement; cited from earlier work
[8] = apomorphine 1.5 mg/kg s.c., linear regression

T1 sequence (P61169 whole entry): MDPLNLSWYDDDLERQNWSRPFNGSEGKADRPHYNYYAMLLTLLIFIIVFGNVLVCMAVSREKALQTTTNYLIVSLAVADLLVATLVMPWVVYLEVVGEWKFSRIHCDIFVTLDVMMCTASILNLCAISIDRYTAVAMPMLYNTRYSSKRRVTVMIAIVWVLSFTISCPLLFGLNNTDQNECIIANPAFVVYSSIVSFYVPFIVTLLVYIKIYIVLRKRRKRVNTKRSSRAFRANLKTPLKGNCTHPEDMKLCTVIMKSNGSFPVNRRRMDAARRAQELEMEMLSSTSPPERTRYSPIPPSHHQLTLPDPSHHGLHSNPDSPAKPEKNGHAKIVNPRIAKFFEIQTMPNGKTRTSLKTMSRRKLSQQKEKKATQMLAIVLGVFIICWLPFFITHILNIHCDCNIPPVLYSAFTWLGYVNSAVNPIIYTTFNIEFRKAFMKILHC
T2 sequence (P14842 whole entry): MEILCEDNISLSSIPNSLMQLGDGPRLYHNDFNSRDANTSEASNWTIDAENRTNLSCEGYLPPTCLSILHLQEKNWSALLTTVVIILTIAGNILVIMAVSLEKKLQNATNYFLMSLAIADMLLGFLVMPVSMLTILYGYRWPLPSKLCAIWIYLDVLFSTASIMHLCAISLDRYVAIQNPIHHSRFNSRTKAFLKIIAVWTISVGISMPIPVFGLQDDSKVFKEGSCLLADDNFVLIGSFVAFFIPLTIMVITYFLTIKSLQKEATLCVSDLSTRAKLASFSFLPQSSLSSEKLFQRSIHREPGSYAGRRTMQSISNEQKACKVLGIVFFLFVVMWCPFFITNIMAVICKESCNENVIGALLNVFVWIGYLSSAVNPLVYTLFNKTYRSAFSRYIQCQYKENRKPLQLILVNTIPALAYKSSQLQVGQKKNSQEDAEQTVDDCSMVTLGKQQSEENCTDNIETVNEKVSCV

Compound: COc1ccc2c(N3CCN(CCCC(=O)c4ccc(F)cc4)CC3)noc2c1 [Example 1b, 3-[1-(4'-Fluorobenzoyl)propyl-4-piperazine]-6-methoxy-1,2-benzisoxazole]
- ED50 [1, 8]: 5.28 mg/kg

Compound: O=C(CCCN1CCN(c2noc3cc(O)ccc23)CC1)c1ccc(F)cc1 [Example 3, 3-[1-(4'-Fluorobenzoyl)propyl-4-piperazinyl]-6-hydroxy-1,2-benzisoxazole hydrobromide]
- APOMORPHINE STEREOTYPY INHIBITION (% inhibition) ([2]; at 4.0 mg/kg): 0%
- ED50 [1, 8]: 0.4 mg/kg
- % Change in A10 region (dopamine neuron sampling) [3]: -44.9%
- IC50 ([4]; 3H-spiroperidol 0.4 nM, 37° C., 10 min, pH 7.7): 0.24 µM
- D2/5-HT2 ([4]; ratio of D2 IC50 to 5-HT2 IC50): 5.3
- % Change in A9 region (dopamine neuron sampling) [5]: +1.4%
- IC50 [6]: 0.045 µM

Compound: O=C(CCCN1CCC(O)(c2ccc(Cl)cc2)CC1)c1ccc(F)cc1 [Haloperidol]
- APOMORPHINE STEREOTYPY INHIBITION (ED50) ([2]; Litchfield and Wilcoxon): 0.6 mg/kg
- depolarization inactivation of the DA neurons in the A9 area [7]: cause a depolarization inactivation of the DA neurons in the A9 area of the brain
- ED50 [1, 8]: 0.11 mg/kg
- % Change in A10 region (dopamine neuron sampling) [3]: -35%
- % Change in A9 region (dopamine neuron sampling) [5]: -30%

Compound: CN1CCN(C2=Nc3cc(Cl)ccc3Nc3ccccc32)CC1 [Clozapine]
- ED50 ([2]; Rattus norvegicus, Litchfield and Wilcoxon): > 40 mg/kg
- ED50 [1]: 8.1 mg/kg
- % Change in A10 region (dopamine neuron sampling) [3]: -79%
- % Change in A9 region (dopamine neuron sampling) [5]: +37%
- number of DA neurons in the A9 area (EPS propensity) ([5]; result in words): do not cause a decrease in the number of DA neurons in the A9 area
